Assay results from patent US4929623A, “Benzothiazole derivative” (Eisai Co., Ltd., priority 1987, dated 1990).

test system: generation of leukotriene C4 (LT) from sliced lung of guinea pig; assay: Effect on generation of leukotriene C4 from sliced lung of guinea pig (passively sensitized, ovalbumin challenge); type: cell-based, guinea pig (male Hartley); conditions: 3 μM test compound, 10 min preincubation, ovalbumin 10 μg/ml, 15 min, 37° C., 3 µM
Experimental: Effect on generation of leukotriene C4 (LT) from sliced lung of guinea pig
An antiovalbumin guinea pig serum (1/10 dilution; 0.5 ml/100 g) was intravenously injected into a male Hartley guinea pig (300-350 g) for passive sensitization. 16 to 18 hr after the passive sensitization, the blood was removed by circulation of the Tyrode solution and the lung was extirpated. The extirpated lung was cut into small pieces having a size of 1 mm×1 mm×1 mm while cooling the lung with ice. The pieces were washed, and 150 mg of the pieces was suspended on 1.8 ml of the Tyrode solution, followed by incubation at 37° C. for 5 min. A 3 μM test compound (the compound of the present invention) solution was added thereto, followed by incubation for 10 min. An antigen solution (ovalbumin; a final concentration of 10 μg/ml) was added thereto, followed by incubation for additional 15 min. The mixture was filtered through a nylon mesh. 100 μl of the filtrate was subjected to determination of the amount of leukotriene C4 (LTC4) with an RzA kit.
The percentage leukotriene C4 (LTC4) liberation inhibition of each compound (indicated by compound No. used in the Examples which will be described later) is shown in Table 1.

`Cc1c(O)c(C)c2sc(N)nc2c1C` [Compound 92] was tested, and the “Percentage inhibition (leukotriene C4 (LTC4) liberation inhibition)” value was 64%.

same assay, conditions: Cavia porcellus, 3 μM test compound, 10 min preincubation, ovalbumin 10 μg/ml, 15 min, 37° C., read-out: Percentage inhibition (leukotriene C4 (LTC4) liberation inhibition)

Going from `Cc1c(O)c(C)c2sc(NC(=O)c3cccnc3)nc2c1C` [Compound 51] to `Cc1c(O)c(C)c2sc(NC(=O)c3ccccc3)nc2c1C` [Compound 54], the inhibition at 3 µM rises from 56% to 58%.

First: Cc1c(O)c(C)c2sc(Nc3ccc(S(N)(=O)=O)cc3)nc2c1C [Compound 103]
Second: Cc1c(O)c(C)c2sc(NCc3ccc(S(N)(=O)=O)cc3)nc2c1C [Compound 34, 6-hydroxy-2-(4-sulfamoylbenzylamino)-4,5,7-trimethyl-benzothiazole]
The inhibition at 3 µM of the first is lower: 48% for the first, 70% for the second.

Compared with `CCOC(=O)CCCNc1nc2c(C)c(C)c(O)c(C)c2s1` [Compound 88], `CCCCCNc1nc2c(C)c(C)c(O)c(C)c2s1` [Compound 95] is lower in inhibition at 3 µM: 79% for the first, 72% for the second.

First: NS(=O)(=O)c1ccc(CNc2nc3c(O)c(Br)cc(Br)c3s2)cc1 [Compound 87]
Second: NS(=O)(=O)c1ccc(CNc2nc3cc(Br)c(O)c(Br)c3s2)cc1 [Compound 86, 6-hydroxy-2-(4-sulfamoylbenzylamino)-5,7-dibromobenzothiazole]
The inhibition at 3 µM of the first is higher: 32% for the first, 31% for the second.

Compared with `CC(C)=CCNc1nc2c(C)c(C)c(O)c(C)c2s1` [Compound 96], `CCNc1nc2c(C)c(C)c(O)c(C)c2s1` [Compound 26] is higher in inhibition at 3 µM: 77% for the first, 85% for the second.

First: Nc1nc2c(cc(O)c3ncccc32)s1 [Compound 17]
Second: Cc1ccc2sc(N)nc2c1O [Compound 19]
The inhibition at 3 µM of the first is lower: 35% for the first, 36% for the second.

Compared with `Cc1c(O)c(C)c2sc(NS(C)(=O)=O)nc2c1C` [Compound 69], `Cc1c(O)c(C)c2sc(NS(=O)(=O)C(C)C)nc2c1C` [Compound 70] is lower in inhibition at 3 µM: 42% for the first, 30% for the second.

Compared with `CC(C)c1cc2nc(N3CCC(O)CC3)sc2c(C(C)C)c1O` [Compound 128], `CC(C)c1cc2nc(N3CCOCC3)sc2c(C(C)C)c1O` [Compound 124] is higher in inhibition at 3 µM: 60% for the first, 72% for the second.

First: Cc1c(O)c(C)c2sc(NS(=O)(=O)c3ccccc3)nc2c1C [Compound 71]
Second: Cc1c(O)c(C)c2sc(NCc3ccccc3)nc2c1C [Compound 134]
The inhibition at 3 µM of the first is lower: 53% for the first, 88% for the second.

Going from `CC(C)c1cc2nc(Nc3ccccc3)sc2c(C(C)C)c1O` [Compound 115] to `CC(C)c1cc2nc(Nc3ccc(C(=O)O)cc3)sc2c(C(C)C)c1O` [Compound 113, 6-hydroxy-2-(4-carboxylphenylamino)-5,7-diisopropylbenzothiazole], the inhibition at 3 µM rises from 39% to 49%.

First: Cc1c(O)c(C)c2sc(NC(=O)C3CCCCC3)nc2c1C [Compound 52]
Second: Cc1c(O)c(C)c2sc(NCC3CCCCC3)nc2c1C [Compound 25]
The inhibition at 3 µM of the first is higher: 62% for the first, 36% for the second.

First: CCN(Cc1ccc(S(N)(=O)=O)cc1)c1nc2c(C)c(C)c(O)c(C)c2s1 [Compound 35]
Second: Cc1c(O)c(C)c2sc(NCc3ccc(S(C)(=O)=O)cc3)nc2c1C [Compound 30]
The inhibition at 3 µM of the first is lower: 68% for the first, 79% for the second.

Compared with `CNc1nc2c(C)c(C)c(O)c(C)c2s1` [Compound 93], `CC(=O)Nc1nc2c(C)c(C)c(O)c(C)c2s1` [Compound 53] is lower in inhibition at 3 µM: 83% for the first, 69% for the second.

First: CC(C)c1cc2nc(NS(=O)(=O)N(C)C)sc2c(C(C)C)c1O [Compound 75]
Second: CC(C)c1cc2nc(NC(=O)N(C)C)sc2c(C(C)C)c1O [Compound 68]
The inhibition at 3 µM of the first is lower: 50% for the first, 70% for the second.

First: Cc1c(O)c(C)c2sc(NCC(C)C)nc2c1C [Compound 24]
Second: Cc1c(O)c(C)c2sc(NC(=O)N(C)C)nc2c1C [Compound 58]
The inhibition at 3 µM of the first is higher: 95% for the first, 64% for the second.

First: CC(C)c1cc2nc(N)sc2c(C(C)C)c1O [Compound 10]
Second: CC(C)c1c(O)c(C(C)C)c2sc(N)nc2c1Cl [Compound 76]
The inhibition at 3 µM of the first is higher: 78% for the first, 72% for the second.

Going from `CCOC(=O)Nc1nc2c(C)c(C)c(O)c(C)c2s1` [Compound 59] to `CCOC(=O)C(=O)Nc1nc2c(C)c(C)c(O)c(C)c2s1` [Compound 60], the inhibition at 3 µM falls from 71% to 36%.

Going from `Cc1c(O)c(C)c2sc(Nc3ccc(C(=O)O)cc3)nc2c1C` [Compound 101, 6-hydroxy-2-(4-carboxylphenylamino)-4,5,7-trimethylbenzothiazole] to `Cc1c(O)c(C)c2sc(Nc3ccc(O)cc3)nc2c1C` [Compound 98], the inhibition at 3 µM rises from 37% to 60%.

Compared with `Cc1c(O)c(C)c2sc(NC(=O)CN(C)C)nc2c1C` [Compound 57], `Cc1c(O)c(C)c2sc(NC(=O)C(=O)O)nc2c1C` [Compound 61] is lower in inhibition at 3 µM: 42% for the first, 36% for the second.

First: Cc1c(O)c(C)c2sc(N3CCCC3=O)nc2c1C [Compound 90]
Second: Cc1c(O)c(C)c2sc(N)nc2c1C [Compound 8, 6-hydroxy-2-amino-4,5,7-trimethylbenzothiazole]
The inhibition at 3 µM of the first is lower: 41% for the first, 75% for the second.

Going from `Nc1nc2c(O)c(Br)cc(Br)c2s1` [Compound 21] to `Nc1nc2cc(Br)c(O)c(Br)c2s1` [Compound 13], the inhibition at 3 µM falls from 48% to 35%.

First: Cc1c(O)c(C)c2sc(NCc3ccc(N(C)C)cc3)nc2c1C [Compound 28]
Second: Cc1c(O)c(C)c2sc(NCc3ccc(C(=O)O)cc3)nc2c1C [Compound 135]
The inhibition at 3 µM of the first is lower: 34% for the first, 41% for the second.

Compared with `CCOC(=O)CCC(=O)Nc1nc2c(C)c(C)c(O)c(C)c2s1` [Compound 64], `Cc1c(O)c(C)c2sc(Nc3ccc(CCC(=O)O)cc3)nc2c1C` [Compound 108] is lower in inhibition at 3 µM: 32% for the first, 30% for the second.

First: Cc1c(O)c(C)c2sc(NCc3ccc(NS(C)(=O)=O)cc3)nc2c1C [Compound 29]
Second: COC(=O)c1ccc(CNc2nc3c(C)c(C)c(O)c(C)c3s2)cc1 [Compound 136]
The inhibition at 3 µM of the first is lower: 43% for the first, 67% for the second.

First: Cc1c(O)c(C)c2sc(NCc3ccc(S(=O)(=O)N(CCO)CCO)cc3)nc2c1C [Compound 31]
Second: CCN(CC)S(=O)(=O)c1ccc(CNc2nc3c(C)c(C)c(O)c(C)c3s2)cc1 [Compound 32]
The inhibition at 3 µM of the first is higher: 62% for the first, 44% for the second.

Going from `CC(C)c1cc2nc(NCc3ccccn3)sc2c(C(C)C)c1O` [Compound 126, 6-hydroxy-2-(2-pyridylmethylamino)-5,7-diisopropylbenzothiazole] to `CC(C)c1cc2nc(NCc3ccc(S(N)(=O)=O)cc3)sc2c(C(C)C)c1O` [Compound 37], the inhibition at 3 µM falls from 66% to 39%.

Compared with `Cc1c(O)c(C)c2sc(NCc3ccc(S(=O)(=O)NCCO)cc3)nc2c1C` [Compound 33], `Cc1c(O)c(C)c2sc(NCc3ccc(C(N)=O)cc3)nc2c1C` [Compound 141] is higher in inhibition at 3 µM: 46% for the first, 53% for the second.

Going from `Cc1c(O)c(C)c2sc(N(C)C)nc2c1C` [Compound 94] to `Cc1c(O)c(C(C)C)c2sc(N)nc2c1C` [Compound 9], the inhibition at 3 µM falls from 79% to 36%.

Compared with `Cc1c(O)c(C)c2sc(NCCCC(=O)NC3CCCCC3)nc2c1C` [Compound 91], `Cc1c(O)c(C)c2sc(NCc3ccc(Cl)cc3Cl)nc2c1C` [Compound 137] is lower in inhibition at 3 µM: 53% for the first, 40% for the second.

Compared with `COc1ccc(Nc2nc3c(C)c(C)c(O)c(C)c3s2)cc1` [Compound 99], `Cc1c(O)c(C)c2sc(Nc3cc(Cl)c(O)c(Cl)c3)nc2c1C` [Compound 106] is higher in inhibition at 3 µM: 43% for the first, 49% for the second.

Going from `COc1c(O)c(C)c2sc(N)nc2c1OC` [Compound 110] to `Cc1c(O)c(C(C)(C)C)cc2nc(N)sc12` [Compound 22], the inhibition at 3 µM rises from 41% to 61%.

Compared with `Nc1nc2c(O)c(Cl)ccc2s1` [Compound 20], `CC(C)c1cc2nc(Nc3ccc(S(N)(=O)=O)cc3)sc2c(C(C)C)c1O` [Compound 122] is higher in inhibition at 3 µM: 33% for the first, 34% for the second.

Going from `CC(C)c1cc2nc(N(CCO)CCO)sc2c(C(C)C)c1O` [Compound 123] to `CCN(Cc1ccc(S(N)(=O)=O)cc1)c1nc2cc(C(C)C)c(O)c(C(C)C)c2s1` [Compound 40], the inhibition at 3 µM falls from 71% to 32%.
